Experimental data taken from ChEMBL document CHEMBL5465560, “Selectivity Literature for EUbOPEN Chemogenomic Library” (2024).
One block for each compound: values may come before it.

Columns and labels:
[1] = target: Death-associated protein kinase 2 (Homo sapiens) (UniProt Q9UIK4); test: Selectivity interaction (LanthaScreen Eu Kinase Binding Assay) EUB0001632a DAPK2; details: at 10 µM
[2] = target: RAC-beta serine/threonine-protein kinase (Homo sapiens) (UniProt P31751); test: Selectivity interaction (Kinase panel (literature)) EUB0001199aCl AKT2; details: at 1 µM
[3] = target: T1, Cyclin-dependent kinase-like 2 (Homo sapiens) (UniProt Q92772); test: Selectivity interaction (KinomeScan (DiscoverX)) EUB0000607a CDKL2; details: at 10 µM
T1 sequence (whole entry): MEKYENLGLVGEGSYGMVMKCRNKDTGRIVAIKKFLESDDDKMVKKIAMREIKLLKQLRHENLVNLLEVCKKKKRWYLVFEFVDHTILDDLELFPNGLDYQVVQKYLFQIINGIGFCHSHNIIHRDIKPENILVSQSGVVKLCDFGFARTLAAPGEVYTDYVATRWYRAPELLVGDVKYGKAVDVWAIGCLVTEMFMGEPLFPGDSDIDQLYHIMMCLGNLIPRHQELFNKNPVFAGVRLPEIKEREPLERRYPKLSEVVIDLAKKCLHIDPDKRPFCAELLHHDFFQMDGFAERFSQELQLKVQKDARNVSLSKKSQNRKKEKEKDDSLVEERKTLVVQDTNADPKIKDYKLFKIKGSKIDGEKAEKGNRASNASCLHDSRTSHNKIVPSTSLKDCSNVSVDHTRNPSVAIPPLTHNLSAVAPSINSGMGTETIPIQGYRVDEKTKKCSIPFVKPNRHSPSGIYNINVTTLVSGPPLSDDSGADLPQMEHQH

[4] = target: T2, Serine/threonine-protein kinase TBK1 (Homo sapiens) (UniProt Q9UHD2); test: Selectivity interaction (SelectScreen profiling (Invitrogen)) EUB0000607a TBK1; details: at 2 µM
T2 sequence (whole entry): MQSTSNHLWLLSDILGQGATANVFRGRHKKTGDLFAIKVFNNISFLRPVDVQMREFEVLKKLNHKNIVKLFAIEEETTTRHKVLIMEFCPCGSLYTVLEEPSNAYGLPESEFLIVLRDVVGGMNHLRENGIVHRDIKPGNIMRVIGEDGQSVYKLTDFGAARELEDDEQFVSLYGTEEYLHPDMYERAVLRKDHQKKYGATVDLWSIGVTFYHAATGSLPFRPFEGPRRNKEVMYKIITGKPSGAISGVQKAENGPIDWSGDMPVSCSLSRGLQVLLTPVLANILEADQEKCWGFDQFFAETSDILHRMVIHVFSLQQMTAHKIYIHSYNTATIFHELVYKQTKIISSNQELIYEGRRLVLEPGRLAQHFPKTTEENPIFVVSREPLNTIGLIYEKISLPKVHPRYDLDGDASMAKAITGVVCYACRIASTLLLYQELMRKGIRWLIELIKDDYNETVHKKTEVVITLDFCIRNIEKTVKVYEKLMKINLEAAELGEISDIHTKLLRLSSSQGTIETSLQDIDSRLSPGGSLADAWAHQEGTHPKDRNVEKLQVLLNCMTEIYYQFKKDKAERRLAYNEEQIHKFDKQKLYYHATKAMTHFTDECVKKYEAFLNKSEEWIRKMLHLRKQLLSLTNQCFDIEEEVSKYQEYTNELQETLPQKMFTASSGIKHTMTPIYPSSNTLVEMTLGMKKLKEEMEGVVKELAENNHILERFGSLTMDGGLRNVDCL

[5] = target: Homeodomain-interacting protein kinase 3 (Homo sapiens, UniProt Q9H422); test: Selectivity interaction (Upstate Kinase Profiler service (Millipore)) EUB0000056c HIPK3; details: at 1 µM
[6] = target: Rho-associated protein kinase 1 (Homo sapiens) (UniProt Q13464); test: Selectivity interaction (KinomeScan (DiscoverX)) EUB0000695a ROCK1; details: at 100 nM
[7] = target: Serine/threonine-protein kinase PAK 1 (Homo sapiens) (UniProt Q13153); test: Selectivity interaction (Kinase panel (DSF assay)) EUB0001559a PAK1
[8] = target: T3, MAP kinase-activated protein kinase 5 (Homo sapiens) (UniProt Q8IW41); test: Selectivity interaction (KinomeScan (DiscoverX)) EUB0000045b MAPKAPK5
T3 sequence (whole entry): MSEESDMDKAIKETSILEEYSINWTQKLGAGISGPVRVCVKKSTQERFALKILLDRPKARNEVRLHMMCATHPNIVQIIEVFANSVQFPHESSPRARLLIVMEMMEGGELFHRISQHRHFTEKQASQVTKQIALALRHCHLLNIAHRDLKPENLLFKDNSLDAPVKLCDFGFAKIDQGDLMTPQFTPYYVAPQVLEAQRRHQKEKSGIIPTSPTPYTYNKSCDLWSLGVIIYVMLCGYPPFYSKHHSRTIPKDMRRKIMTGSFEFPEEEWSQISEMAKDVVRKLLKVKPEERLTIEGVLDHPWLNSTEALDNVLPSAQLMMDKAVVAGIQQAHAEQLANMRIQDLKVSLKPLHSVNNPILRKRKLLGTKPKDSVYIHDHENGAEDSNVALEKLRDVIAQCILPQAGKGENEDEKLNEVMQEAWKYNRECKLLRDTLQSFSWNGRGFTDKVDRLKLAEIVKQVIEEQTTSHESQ

[9] = target: Dual specificity tyrosine-phosphorylation-regulated kinase 1A (Homo sapiens, UniProt Q13627); test: Selectivity interaction (KinomeScan (DiscoverX)) EUB0001079a DYRK1A; details: at 1 µM
[10] = target: Tyrosine-protein kinase JAK2 (Homo sapiens, UniProt O60674); test: Selectivity interaction (KinomeScan (DiscoverX)) EUB0000229b JAK2; details: at 10 µM
[11] = target: T4, Serine/threonine-protein kinase RIO3 (Homo sapiens) (UniProt O14730); test: Selectivity interaction (KinomeScan (DiscoverX)) EUB0000092b RIOK3; details: at 10 µM
T4 sequence (whole entry): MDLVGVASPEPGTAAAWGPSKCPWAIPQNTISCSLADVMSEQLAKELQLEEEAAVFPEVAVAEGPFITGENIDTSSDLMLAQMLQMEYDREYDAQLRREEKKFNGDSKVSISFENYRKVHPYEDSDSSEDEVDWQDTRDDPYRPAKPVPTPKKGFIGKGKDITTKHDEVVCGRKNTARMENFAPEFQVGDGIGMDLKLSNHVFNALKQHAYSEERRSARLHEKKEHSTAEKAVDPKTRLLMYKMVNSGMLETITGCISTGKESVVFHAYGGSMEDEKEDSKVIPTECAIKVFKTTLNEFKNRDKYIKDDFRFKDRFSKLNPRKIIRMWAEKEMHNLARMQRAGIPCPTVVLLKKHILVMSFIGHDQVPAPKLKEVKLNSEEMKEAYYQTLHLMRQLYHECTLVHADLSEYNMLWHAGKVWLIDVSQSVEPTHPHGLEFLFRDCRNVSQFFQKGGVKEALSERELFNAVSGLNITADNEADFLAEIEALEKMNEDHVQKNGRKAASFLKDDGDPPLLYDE

[12] = target: Vascular endothelial growth factor receptor 2 (Homo sapiens, UniProt P35968); details: at 10 µM
Sequence of Vascular endothelial growth factor receptor 2 (P35968 whole entry): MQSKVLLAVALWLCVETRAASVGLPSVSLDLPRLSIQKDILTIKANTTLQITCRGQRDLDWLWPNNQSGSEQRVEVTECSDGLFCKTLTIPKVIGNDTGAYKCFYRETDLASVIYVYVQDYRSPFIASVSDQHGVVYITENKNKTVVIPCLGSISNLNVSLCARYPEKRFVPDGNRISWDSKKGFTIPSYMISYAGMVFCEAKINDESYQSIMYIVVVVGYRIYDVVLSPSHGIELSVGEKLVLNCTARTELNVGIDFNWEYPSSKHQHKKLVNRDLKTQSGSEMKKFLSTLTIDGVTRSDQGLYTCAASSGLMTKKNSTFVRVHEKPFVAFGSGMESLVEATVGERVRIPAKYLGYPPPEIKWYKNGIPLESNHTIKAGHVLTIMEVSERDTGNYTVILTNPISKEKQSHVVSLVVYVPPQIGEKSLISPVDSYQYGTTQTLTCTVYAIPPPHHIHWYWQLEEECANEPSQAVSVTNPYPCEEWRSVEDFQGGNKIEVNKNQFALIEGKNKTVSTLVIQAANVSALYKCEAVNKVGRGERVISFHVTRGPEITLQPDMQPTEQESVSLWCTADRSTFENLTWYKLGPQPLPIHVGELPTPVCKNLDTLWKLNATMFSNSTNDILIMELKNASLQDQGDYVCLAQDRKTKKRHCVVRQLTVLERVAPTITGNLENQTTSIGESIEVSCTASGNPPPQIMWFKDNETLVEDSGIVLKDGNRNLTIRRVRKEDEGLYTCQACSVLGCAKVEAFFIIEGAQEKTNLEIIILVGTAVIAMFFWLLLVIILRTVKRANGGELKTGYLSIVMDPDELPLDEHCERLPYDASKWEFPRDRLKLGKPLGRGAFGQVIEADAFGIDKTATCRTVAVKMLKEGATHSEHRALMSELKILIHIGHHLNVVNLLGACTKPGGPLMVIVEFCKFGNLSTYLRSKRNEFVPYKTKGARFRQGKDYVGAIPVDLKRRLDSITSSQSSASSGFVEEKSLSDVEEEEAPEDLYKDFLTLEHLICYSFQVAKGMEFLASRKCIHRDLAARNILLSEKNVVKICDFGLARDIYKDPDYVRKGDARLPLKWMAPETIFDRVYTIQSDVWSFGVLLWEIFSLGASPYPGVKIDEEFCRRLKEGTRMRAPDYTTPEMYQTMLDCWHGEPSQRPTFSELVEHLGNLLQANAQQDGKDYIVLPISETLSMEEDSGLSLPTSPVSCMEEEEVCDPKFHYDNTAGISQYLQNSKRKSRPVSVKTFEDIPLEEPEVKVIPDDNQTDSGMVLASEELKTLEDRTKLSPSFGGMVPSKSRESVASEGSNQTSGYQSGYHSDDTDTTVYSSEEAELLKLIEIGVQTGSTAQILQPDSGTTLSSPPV

Sequence of Serine/threonine-protein kinase PAK 1 (Homo sapiens) (Q13153 whole entry): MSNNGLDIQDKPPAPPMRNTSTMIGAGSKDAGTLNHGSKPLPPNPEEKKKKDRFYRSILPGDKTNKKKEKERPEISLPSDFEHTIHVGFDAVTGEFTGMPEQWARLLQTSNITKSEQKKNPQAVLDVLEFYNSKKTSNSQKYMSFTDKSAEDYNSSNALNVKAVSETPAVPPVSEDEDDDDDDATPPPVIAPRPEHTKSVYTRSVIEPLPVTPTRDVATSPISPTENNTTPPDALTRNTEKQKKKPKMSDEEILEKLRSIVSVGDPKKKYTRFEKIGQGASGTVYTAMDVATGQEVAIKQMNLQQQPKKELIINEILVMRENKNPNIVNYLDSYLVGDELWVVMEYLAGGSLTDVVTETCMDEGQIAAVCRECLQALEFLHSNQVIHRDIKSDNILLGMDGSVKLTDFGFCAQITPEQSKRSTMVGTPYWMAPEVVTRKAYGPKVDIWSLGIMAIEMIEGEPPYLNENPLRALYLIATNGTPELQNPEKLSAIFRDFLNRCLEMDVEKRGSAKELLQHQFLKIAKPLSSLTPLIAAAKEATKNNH
Sequence of Rho-associated protein kinase 1 (Homo sapiens) (Q13464 2-1354 limits assumed): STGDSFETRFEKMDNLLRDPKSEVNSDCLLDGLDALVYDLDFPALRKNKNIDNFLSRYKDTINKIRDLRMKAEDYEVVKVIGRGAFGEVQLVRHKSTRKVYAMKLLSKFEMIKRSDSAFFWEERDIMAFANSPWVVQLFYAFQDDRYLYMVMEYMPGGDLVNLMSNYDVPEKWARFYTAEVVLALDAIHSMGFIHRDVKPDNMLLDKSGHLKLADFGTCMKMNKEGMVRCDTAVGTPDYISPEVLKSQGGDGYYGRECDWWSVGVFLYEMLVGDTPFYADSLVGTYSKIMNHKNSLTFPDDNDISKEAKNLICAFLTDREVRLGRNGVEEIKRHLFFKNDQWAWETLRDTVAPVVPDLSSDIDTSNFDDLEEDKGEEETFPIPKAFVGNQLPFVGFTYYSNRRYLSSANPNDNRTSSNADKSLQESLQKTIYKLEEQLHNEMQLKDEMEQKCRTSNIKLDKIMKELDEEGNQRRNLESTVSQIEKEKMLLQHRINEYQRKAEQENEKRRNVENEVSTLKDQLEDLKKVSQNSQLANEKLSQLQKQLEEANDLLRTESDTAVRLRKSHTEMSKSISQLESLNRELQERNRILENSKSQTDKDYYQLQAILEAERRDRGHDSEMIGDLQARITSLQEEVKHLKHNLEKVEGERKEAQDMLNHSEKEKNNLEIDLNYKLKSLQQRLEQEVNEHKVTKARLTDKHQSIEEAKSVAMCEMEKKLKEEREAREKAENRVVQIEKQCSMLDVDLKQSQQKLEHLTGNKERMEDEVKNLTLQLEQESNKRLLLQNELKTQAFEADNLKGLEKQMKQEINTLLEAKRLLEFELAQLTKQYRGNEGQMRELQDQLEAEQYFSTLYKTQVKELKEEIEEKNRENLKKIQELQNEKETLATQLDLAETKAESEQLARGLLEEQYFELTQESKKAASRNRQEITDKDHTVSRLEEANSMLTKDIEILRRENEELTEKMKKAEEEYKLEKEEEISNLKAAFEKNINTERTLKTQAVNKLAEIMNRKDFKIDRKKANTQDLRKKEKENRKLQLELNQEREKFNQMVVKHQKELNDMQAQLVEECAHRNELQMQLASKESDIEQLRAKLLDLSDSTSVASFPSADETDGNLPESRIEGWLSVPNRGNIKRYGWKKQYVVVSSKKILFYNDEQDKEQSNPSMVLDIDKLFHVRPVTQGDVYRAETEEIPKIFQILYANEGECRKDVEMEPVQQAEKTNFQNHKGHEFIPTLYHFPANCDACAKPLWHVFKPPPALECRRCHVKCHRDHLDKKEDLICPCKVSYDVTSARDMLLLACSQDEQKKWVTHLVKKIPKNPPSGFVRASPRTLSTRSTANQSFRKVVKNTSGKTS
Sequence of Tyrosine-protein kinase JAK2 (O60674 whole entry): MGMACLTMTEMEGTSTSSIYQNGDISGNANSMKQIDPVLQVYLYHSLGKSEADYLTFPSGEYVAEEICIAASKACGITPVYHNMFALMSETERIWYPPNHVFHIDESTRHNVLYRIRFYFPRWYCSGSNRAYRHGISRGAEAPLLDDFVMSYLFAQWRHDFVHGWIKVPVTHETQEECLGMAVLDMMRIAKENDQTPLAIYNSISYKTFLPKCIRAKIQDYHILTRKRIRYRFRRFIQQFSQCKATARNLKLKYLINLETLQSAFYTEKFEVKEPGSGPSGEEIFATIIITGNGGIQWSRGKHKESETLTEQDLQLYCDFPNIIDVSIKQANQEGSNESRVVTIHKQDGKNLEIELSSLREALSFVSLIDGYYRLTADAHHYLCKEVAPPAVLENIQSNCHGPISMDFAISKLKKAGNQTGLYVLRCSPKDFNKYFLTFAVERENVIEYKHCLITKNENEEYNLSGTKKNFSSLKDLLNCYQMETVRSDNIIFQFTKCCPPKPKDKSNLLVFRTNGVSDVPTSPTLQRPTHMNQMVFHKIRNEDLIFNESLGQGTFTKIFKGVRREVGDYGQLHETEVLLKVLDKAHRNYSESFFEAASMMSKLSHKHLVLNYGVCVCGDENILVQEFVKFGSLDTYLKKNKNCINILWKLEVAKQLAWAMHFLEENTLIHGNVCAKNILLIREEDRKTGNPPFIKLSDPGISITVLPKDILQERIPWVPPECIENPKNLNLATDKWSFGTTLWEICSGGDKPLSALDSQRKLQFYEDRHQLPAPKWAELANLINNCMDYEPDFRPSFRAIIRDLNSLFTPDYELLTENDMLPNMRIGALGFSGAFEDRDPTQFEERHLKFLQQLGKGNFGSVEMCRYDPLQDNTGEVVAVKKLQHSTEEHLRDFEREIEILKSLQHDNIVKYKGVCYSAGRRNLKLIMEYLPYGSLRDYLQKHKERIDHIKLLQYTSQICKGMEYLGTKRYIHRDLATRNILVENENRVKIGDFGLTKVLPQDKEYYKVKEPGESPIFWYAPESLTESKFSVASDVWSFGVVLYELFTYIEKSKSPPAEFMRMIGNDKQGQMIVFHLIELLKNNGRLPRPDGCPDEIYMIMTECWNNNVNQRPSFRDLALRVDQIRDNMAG
Sequence of RAC-beta serine/threonine-protein kinase (Homo sapiens) (P31751 whole entry): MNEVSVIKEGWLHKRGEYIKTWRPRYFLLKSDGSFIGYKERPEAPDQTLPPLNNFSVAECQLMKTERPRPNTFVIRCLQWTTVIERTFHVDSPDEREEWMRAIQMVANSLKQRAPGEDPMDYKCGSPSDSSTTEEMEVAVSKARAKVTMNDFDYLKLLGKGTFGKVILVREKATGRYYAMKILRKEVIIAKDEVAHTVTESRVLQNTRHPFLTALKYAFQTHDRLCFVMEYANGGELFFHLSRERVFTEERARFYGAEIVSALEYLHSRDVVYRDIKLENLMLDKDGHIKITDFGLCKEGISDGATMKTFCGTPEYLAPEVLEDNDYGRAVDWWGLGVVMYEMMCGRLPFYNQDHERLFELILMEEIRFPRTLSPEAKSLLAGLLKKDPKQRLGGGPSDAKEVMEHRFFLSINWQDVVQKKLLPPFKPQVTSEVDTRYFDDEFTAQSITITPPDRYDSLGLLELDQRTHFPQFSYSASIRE

Structure (SMILES): Cn1cc(-n2cnc3c(NCc4nc5cc(Cl)c(Cl)cc5[nH]4)nc(N4CCOCC4)nc32)cn1
- % of inhibition [1]: -5.23%

- % of inhibition [2]: 7%
Structure (SMILES): CN1Cc2nccc(-c3cn(C)nc3-c3ccc(F)cc3)c2C1=O

Structure (SMILES): CNC(=O)Nc1ccc(-c2nc(N3CC4CCC(C3)O4)c3cnn(C4CCC5(CC4)OCCO5)c3n2)cc1
- % of control [3]: 100%
- % of inhibition [4]: 2%

- % of inhibition [5]: -11%
Structure (SMILES): Cc1ccc(-c2ccc3c(ccc4sc5c(c43)NC[C@@H](C)NC5=O)n2)cn1

Structure (SMILES): Cc1cc(F)c(C(=O)Nc2cccc(-c3nncn3C(C)C)n2)cc1-n1cnc(C2CC2)c1
- % of control [6]: 99%

- dTM [7]: -0.1 K
Structure (SMILES): CN(C(=O)c1cnn2cccnc12)c1cc2c(cc1N1CCOCC1)C(=O)N(C[C@@H](F)C(C)(C)O)C2

Structure (SMILES): C=CC(=O)Nc1cc(-n2c(=O)ccc3cnc4ccc(-c5ccc(NS(C)(=O)=O)cc5)cc4c32)ccc1C
- % of control ([8]; at 1 µM): 100%
- % of control ([8]; at 10 µM): 100%

Structure (SMILES): Nc1cnc(N2CCc3cc(S(=O)(=O)Nc4c(F)cc(Cl)cc4F)cc(N4CCCC4=O)c32)nc1 [TP-020n]
- % of control [9]: 80%

Structure (SMILES): COc1cc(N(C)c2ccnc3ccc(C(F)(F)F)cc23)cc(OC)c1OC
- % binding [10]: 97%

Structure (SMILES): CCC(=O)N1CCN(c2ccc(-n3c(=O)ccc4cnc5ccc(-c6cnc7ccccc7c6)cc5c43)cc2C(F)(F)F)CC1
- % of control [11]: 90%

Structure (SMILES): Cc1cc([C@@H](C)Nc2ccccc2C(=O)O)c2nc(N3CCOCC3)cc(=O)n2c1 [AZD-6482]
- % of control [12]: 100%
